Test results from paper PMC6100082, “Pyridine-Ureas as Potential Anticancer Agents: Synthesis and In Vitro Biological Evaluation” (Molecules : A Journal of Synthetic Chemistry and Natural …, 2018).
Where two headings read alike, the source gives them in different places.

Legend:
UACC-257 = assay: NCI one-dose SRB assay (Melanoma); type: cell-based, human; settings: for inhibition at 10 µM: Homo sapiens, UACC-257, 10 μM, read-out: Percentage growth inhibition (GI%); for Growth Percent: UACC-257, 1.00E-5 Molar
Summary of the method: (§1)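 One-dose primary screen per NCI Drug Evaluation Branch protocol: 10^−5 M compound, 48 h, SRB viability/growth read-out, GI% reported.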

SK-MEL-28 = assay: NCI one-dose SRB assay (Melanoma); type: cell-based, human; settings: for inhibition at 10 µM: Homo sapiens, SK-MEL-28, 10 μM, read-out: Percentage growth inhibition (GI%); for Growth Percent: SK-MEL-28, 1.00E-5 Molar
Summary of the method: as §1

[1] = tested on: breast cancer MCF-7 cell line; assay: In vitro anti-proliferative activity, MTT assay; type: cell-based, human; settings: MCF-7, MTT
Experimental: The in vitro anti-proliferative activity of the newly prepared pyridine-ureas 8a–n was examined against breast cancer MCF-7 cell line. The assay was carried out, as triplicates, utilizing the 3-(4,5-dimethylthiazol-2-yl)-2,5-diphenyltetrazolium bromide (MTT) colorimetric assay as described by T. Mosmann. Doxorubicin and Sorafenib were included in this assay as a reference drug.
MCF-7 (human breast cancer cell line) and WI-38 (human lung fibroblast cell line), were obtained from American Type Culture Collection (Manassas, VA, USA). The cells were propagated in DMEM and supplemented with 10% heat-inactivated FBS (Hyclone), 10 μg/mL of insulin (Manufacturer, Sigma, St. Louis, MO, USA), and 1% penicillin-streptomycin. MTT assay was utilized to examine the in vitro anti-proliferative activity of the newly prepared ureas following the reported procedures. […] The data presented are the mean of at least three separate experiments.

PC-3 = assay: NCI one-dose SRB assay (Prostate); type: cell-based, human; settings: for inhibition at 10 µM: Homo sapiens, PC-3, 10 μM, read-out: Percentage growth inhibition (GI%); for Growth Percent: PC-3, 1.00E-5 Molar
Experimental: (§2) The structures of all the newly prepared pyridine-ureas 8a–n were submitted to the National Cancer Institute (NCI) Developmental Therapeutic Program. Eight compounds 8b, 8d, 8e, 8i, 8j and 8l–n were selected to be examined for their in vitro growth inhibitory activity. The anticancer assays were carried out according to the protocol of the Drug Evaluation Branch, NCI, Bethesda. The selected pyridine-ureas were tested at one dose primary anticancer assay against a panel of approximately 58 cancer lines (concentration 10^−5 M). The tested human cancer cell lines emerged from nine different cancer subtypes: leukemia, colon, melanoma, ovarian, lung, CNS, renal, breast and prostate cancers. The sulforhodamine B (SRB) protein assay was adopted to estimate the cell viability and growth. The results were reported as mean-graph of the percentage growth of the treated cells, and presented as percentage growth inhibition (GI%) caused by the test compounds (Table 2).
(§3) The anticancer assays were performed in accordance with the protocol of the Drug Evaluation Branch, NCI, Bethesda. A 48 h drug exposure protocol was used and sulforhodamine B (SRB) protein assay was applied to estimate the cell viability and growth, as reported earlier.

DU-145 = assay: NCI one-dose SRB assay (Prostate); type: cell-based, human; settings: for Growth Percent: DU-145, 1.00E-5 Molar; for inhibition at 10 µM: Homo sapiens, DU-145, 10 μM, read-out: Percentage growth inhibition (GI%)
Experimental: as §2, §3

NCI 58 cell line panel = assay: NCI one-dose SRB assay, whole panel / subpanel summary; type: cell-based, human; settings: for inhibition at 10 µM: Homo sapiens, one dose, read-out: mean inhibition (mean % growth inhibition over NCI 58 cell line panel); for Mean Growth Percent: One Dose Mean Graph, 1.00E-5 Molar
Experimental: as §2, §3

COLO 205 = assay: NCI one-dose SRB assay (Colon Cancer); type: cell-based, human; settings: for Growth Percent: COLO 205, 1.00E-5 Molar; for inhibition at 10 µM: Homo sapiens, COLO 205, 10 μM, read-out: Percentage growth inhibition (GI%)
Experimental: as §2, §3

KM12 = assay: NCI one-dose SRB assay (Colon Cancer); type: cell-based, human; settings: for inhibition at 10 µM: Homo sapiens, KM12, 10 μM, read-out: Percentage growth inhibition (GI%); for Growth Percent: KM12, 1.00E-5 Molar
Experimental: as §2, §3

SW-620 = assay: NCI one-dose SRB assay (Colon Cancer); type: cell-based, human; settings: for inhibition at 10 µM: Homo sapiens, SW-620, 10 μM, read-out: Percentage growth inhibition (GI%); for Growth Percent: SW-620, 1.00E-5 Molar
Experimental: as §2, §3

HCT-15 = assay: NCI one-dose SRB assay (Colon Cancer); type: cell-based, human; settings: for Growth Percent: HCT-15, 1.00E-5 Molar; for inhibition at 10 µM: Homo sapiens, HCT-15, 10 μM, read-out: Percentage growth inhibition (GI%)
Experimental: as §2, §3

HT29 = assay: NCI one-dose SRB assay (Colon Cancer); type: cell-based, human; settings: for Growth Percent: HT29, 1.00E-5 Molar; for inhibition at 10 µM: Homo sapiens, HT-29, HT29, 10 μM, read-out: Percentage growth inhibition (GI%)
Experimental: as §2, §3

CCRF-CEM = assay: NCI one-dose SRB assay (Leukemia); type: cell-based, human; settings: for Growth Percent: 1.00E-5 Molar; for inhibition at 10 µM: Homo sapiens, read-out: Percentage growth inhibition (GI%)
Experimental: as §2, §3

RPMI-8226 = assay: NCI one-dose SRB assay (Leukemia); type: cell-based, human; settings: for inhibition at 10 µM: Homo sapiens, RPMI-8226, 10 μM, read-out: Percentage growth inhibition (GI%); for Growth Percent: RPMI-8226, 1.00E-5 Molar
Experimental: as §2, §3

SR = assay: NCI one-dose SRB assay (Leukemia); type: cell-based, human; settings: for Growth Percent: 1.00E-5 Molar; for inhibition at 10 µM: Homo sapiens, read-out: Percentage growth inhibition (GI%)
Experimental: as §2, §3

K-562 = assay: NCI one-dose SRB assay (Leukemia); type: cell-based, human; settings: for inhibition at 10 µM: Homo sapiens, K562, K-562, 10 μM, read-out: Percentage growth inhibition (GI%); for Growth Percent: K-562, 1.00E-5 Molar
Experimental: as §2, §3

HL-60(TB) = assay: NCI one-dose SRB assay (Leukemia); type: cell-based, human; settings: for Growth Percent: 1.00E-5 Molar; for inhibition at 10 µM: Homo sapiens, read-out: Percentage growth inhibition (GI%)
Experimental: as §2, §3

MOLT-4 = assay: NCI one-dose SRB assay (Leukemia); type: cell-based, human; settings: for inhibition at 10 µM: Homo sapiens, MOLT-4, 10 μM, read-out: Percentage growth inhibition (GI%); for Growth Percent: MOLT-4, 1.00E-5 Molar
Experimental: as §2, §3

SN12C = assay: NCI one-dose SRB assay (Renal Cancer); type: cell-based, human; settings: for Growth Percent: 1.00E-5 Molar; for inhibition at 10 µM: Homo sapiens, read-out: Percentage growth inhibition (GI%)
Experimental: as §2, §3

A498 = assay: NCI one-dose SRB assay (Renal Cancer); type: cell-based, human; settings: for Growth Percent: A498, 1.00E-5 Molar; for inhibition at 10 µM: Homo sapiens, A498, 10 μM, read-out: Percentage growth inhibition (GI%)
Experimental: as §2, §3

RXF 393 = assay: NCI one-dose SRB assay (Renal Cancer); type: cell-based, human; settings: for inhibition at 10 µM: Homo sapiens, RXF 393, 10 μM, read-out: Percentage growth inhibition (GI%); for Growth Percent: RXF 393, 1.00E-5 Molar
Experimental: as §2, §3

TK-10 = assay: NCI one-dose SRB assay (Renal Cancer); type: cell-based, human; settings: for inhibition at 10 µM: Homo sapiens, TK-10, 10 μM, read-out: Percentage growth inhibition (GI%); for Growth Percent: TK-10, 1.00E-5 Molar
Experimental: as §2, §3

786-0 = assay: NCI one-dose SRB assay (Renal Cancer); type: cell-based, human; settings: for Growth Percent: 786-0, 1.00E-5 Molar; for inhibition at 10 µM: Homo sapiens, 786-0, 10 μM, read-out: Percentage growth inhibition (GI%)
Experimental: as §2, §3

UO-31 = assay: NCI one-dose SRB assay (Renal Cancer); type: cell-based, human; settings: for inhibition at 10 µM: Homo sapiens, UO-31, 10 μM, read-out: Percentage growth inhibition (GI%); for Growth Percent: UO-31, 1.00E-5 Molar
Experimental: as §2, §3

[2] = Homo sapiens, MCF7, 48 h, 48 h of incubation, read-out: IC50 48 h
[3] = Homo sapiens, MCF7, 72 h, 72 h of incubation, read-out: IC50 72 h

COc1ccc(-c2ccc(NC(=O)Nc3cccc(C(F)(F)F)c3)c(C)n2)cc1OC [Compound 8i, 1-(6-(3,4-Dimethoxyphenyl)-2-methylpyridin-3-yl)-3-(3-(trifluoromethyl)phenyl) Urea]
inhibition at 10 µM (UACC-257): 19%
Growth Percent (UACC-257): 81.62%
inhibition at 10 µM (SK-MEL-28): 25%
Growth Percent (SK-MEL-28): 75.52%
IC50 [1, 2]: 6.19 ± 0.54 µM
IC50 [1, 3]: 5.8 ± 0.34 µM
inhibition at 10 µM (PC-3): 73%
Growth Percent (PC-3): 27.45%
Growth Percent (DU-145): 82.57%
inhibition at 10 µM (DU-145): 18%
inhibition at 10 µM (NCI 58 cell line panel): 22 to 34%
Mean Growth Percent (NCI 58 cell line panel): 67.33%
melting point: 235 to 237 °C
Growth Percent (COLO 205): 88.09%
inhibition at 10 µM (COLO 205): 12%
inhibition at 10 µM (KM12): 34%
Growth Percent (KM12): 66.00%
inhibition at 10 µM (SW-620): < 10%
Growth Percent (SW-620): 91.19%
Growth Percent (HCT-15): 48.77%
inhibition at 10 µM (HCT-15): 52%
Growth Percent (HT29): 59.96%
inhibition at 10 µM (HT29): 41%
Growth Percent (CCRF-CEM): 50.94%
inhibition at 10 µM (CCRF-CEM): 50%
inhibition at 10 µM (RPMI-8226): 66%
Growth Percent (RPMI-8226): 34.61%
Growth Percent (SR): 51.13%
inhibition at 10 µM (SR): 49%
inhibition at 10 µM (K-562): 69%
Growth Percent (K-562): 31.93%
Growth Percent (HL-60(TB)): 61.08%
inhibition at 10 µM (HL-60(TB)): 39%
inhibition at 10 µM (MOLT-4): 61%
Growth Percent (MOLT-4): 39.58%
Growth Percent (SN12C): 79.32%
inhibition at 10 µM (SN12C): 21%
Growth Percent (A498): 61.34%
inhibition at 10 µM (A498): 39%
inhibition at 10 µM (RXF 393): 23%
Growth Percent (RXF 393): 77.55%
inhibition at 10 µM (TK-10): 21%
Growth Percent (TK-10): 79.75%
Growth Percent (786-0): 69.08%
inhibition at 10 µM (786-0): 31%
inhibition at 10 µM (UO-31): 26%
Growth Percent (UO-31): 74.95%

COc1ccc(-c2ccc(NC(=O)Nc3cccc(Cl)c3)c(C)n2)cc1OC [Compound 8j, 1-(3-Chlorophenyl)-3-(6-(3,4-dimethoxyphenyl)-2-methylpyridin-3-yl) Urea]
inhibition at 10 µM (UACC-257): 29%
Growth Percent (UACC-257): 71.26%
inhibition at 10 µM (SK-MEL-28): 21%
Growth Percent (SK-MEL-28): 79.52%
IC50 [1, 2]: 10.1 µM
IC50 [1, 3]: 26.2 ± 2.17 µM
IC50 ([1]; 48 h of incubation, read-out: IC50 48 h): 10.9 ± 1.03 µM
inhibition at 10 µM (PC-3): 61%
Growth Percent (PC-3): 39.30%
Growth Percent (DU-145): 101.79%
inhibition at 10 µM (DU-145): < 10%
inhibition at 10 µM (NCI 58 cell line panel): 22 to 34%
Mean Growth Percent (NCI 58 cell line panel): 78.01%
melting point: 249 to 250 °C
Growth Percent (COLO 205): 93.06%
inhibition at 10 µM (COLO 205): < 10%
inhibition at 10 µM (KM12): 22%
Growth Percent (KM12): 78.93%
inhibition at 10 µM (SW-620): < 10%
Growth Percent (SW-620): 98.24%
Growth Percent (HCT-15): 60.62%
inhibition at 10 µM (HCT-15): 40%
Growth Percent (HT29): 74.98%
inhibition at 10 µM (HT29): 26%
Growth Percent (CCRF-CEM): 68.29%
inhibition at 10 µM (CCRF-CEM): 32%
inhibition at 10 µM (RPMI-8226): 49%
Growth Percent (RPMI-8226): 51.32%
Growth Percent (SR): 52.07%
inhibition at 10 µM (SR): 48%
inhibition at 10 µM (K-562): 60%
Growth Percent (K-562): 40.86%
Growth Percent (HL-60(TB)): 63.92%
inhibition at 10 µM (HL-60(TB)): 37%
inhibition at 10 µM (MOLT-4): 58%
Growth Percent (MOLT-4): 42.64%
Growth Percent (SN12C): 86.84%
inhibition at 10 µM (SN12C): 14%
Growth Percent (A498): 69.84%
inhibition at 10 µM (A498): 31%
inhibition at 10 µM (RXF 393): 18%
Growth Percent (RXF 393): 82.62%
inhibition at 10 µM (TK-10): < 10%
Growth Percent (TK-10): 99.31%
Growth Percent (786-0): 71.87%
inhibition at 10 µM (786-0): 29%
inhibition at 10 µM (UO-31): 21%
Growth Percent (UO-31): 79.44%
